Source: patent US20240335453A1, “METALLO-ß-LACTAMASE INHIBITORS” (University of KwaZulu-Natal, priority 2021, published 2024)
≈ marks a conversion by molar mass, not a printed value. Where “and” joins values, the source holds several entries; their conditions need not be identical. Equal entries are not always repeated. Entries after “also recorded” stand apart in the source; their conditions may differ. Where two headings read alike, the source gives them in different places. Blank lines part the entries; values can stand above or below the molecule they belong to.

How the values were obtained:
E. coli NDM-1 [1] = assay: MIC broth microdilution checkerboard; type: cell-based, Escherichia coli
Method: (§1) Briefly, two-fold dilutions of each meropenem/BP or meropenem/TG from 0.015 to 16 μg/mL and 1 to 64 μg/mL respectively were made in cation adjusted Mueller-Hinton Broth (CAMHB) in a 96-well microtitre plate using the checkerboard method (King et al). A 0.5 McFarland-standardized bacterial inoculum was added to make a total volume of 100 μl in each microtitre well. The initial inoculum density was determined by plating out MHA plates for MBC testing. The plates were then incubated for 18-22 h at 37° C. under aerobic conditions. The MIC was determined as the lowest concentration at which there was no visible growth. Control wells included the amount of solvent used in dissolving drug candidates.
(§2) To investigate the potential activity of BP1 and TG1 as MBLs inhibitors well characterized carbapenem-resistant bacteria expressing known class B carbapenemases were used. MICs using the broth micro-dilution method was conducted according to CLSI guidelines (Clinical and Laboratory Standards Institute. Performance Standards for Antimicrobial Susceptibility Testing: Twenty-Fourth Informational Supplement M100-S24. CLSI, Wayne, PA, USA, 2014) using cation adjusted Mueller-Hinton broth for meropenem, alone (See table 4) and in combination with the metal chelating agents BP1 and TG1 at variable concentrations (two-fold dilutions from 1 to 64 μg/mL). Escherichia coli ATCC 25922 was used as the control.

HepG2 cells [2] = assay: Cell viability (MTT) assay; type: cell-based, Human; conditions: for IC50: Homo sapiens, HepG2, 24 h; for HepG2 cell viability, effect in words: relative to control
Method: Human hepatoma (HepG2) cells were cultured in Dulbecco minimum essential medium (Lonza Biowhittaker, Switzerland) supplemented with 1% pen/strep/fungizone, 1% L-glutamine and 10% fetal bovine serum. The cells were maintained under the atmosphere of 5% CO2 at 37° C. Once 80% confluence had been reached, cells were enzymatically detached (trypsin) and utilized for the cell viability assay. The effect of MPR-SMN-05 on cell viability was determined using the 3-(4,5-Dimethyl-2-thiazolyl)-2,5-diphenyl-2H-tetrazolium bromide (MTT) assay according to previously reported studies by Mosmann (Mosmann T. Rapid colorimetric assay for cellular growth and survival: application to proliferation and cytotoxicity assays. Journal of immunological methods 1983; 65: 55-63). Approximately 15, 000 cells were seeded in a 96-well microtiter plate and allowed to adhere overnight. The cells were subsequently exposed to a range of 0 to 250 mg/L MPR-SMN-05 (experiments were done in triplicate). After incubation with MPR-SMN-05 for 24 h, cells were washed twice with 0.1 M phosphate buffer saline (PBS) and incubated with 20 μl MTT salt solution (5 mg/ml in 0.1 M PBS) and 100 μl complete culture medium (CCM) (37° C., 4 h). The MTT salt solution was then discarded and […] of DMSO was added to each well and incubated (37° C., 1 h) to dissolve the formazan crystals. The optical density was measured at 570/690 nm employing a spectrophotometer (Bio-Tek uQuant, Winooski, VT). The results were expressed as percentage cell viability vs. log concentration of MPR-SMN-05, from which the half maximal inhibitory concentration (IC50) was determined. Control treatments were represented by an equal amount of DMSO solvent in CCM without the test compound.

HepG2 cells [3] = assay: Lactate dehydrogenase (LDH) cytotoxicity assay; type: cell-based, Human; conditions: for Induction of necrosis / Extracellular lactate dehydrogenase (LDH) level: HepG2 cells; for Induction of necrosis: from LDH; for Extracellular lactate dehydrogenase (LDH) level: relative to control
Method: Human hepatoma (HepG2) cells were cultured in Dulbecco minimum essential medium (Lonza Biowhittaker, Switzerland) supplemented with 1% pen/strep/fungizone, 1% L-glutamine and 10% fetal bovine serum. The cells were maintained under the atmosphere of 5% CO2 at 37° C. Once 80% confluence had been reached, cells were enzymatically detached (trypsin) and utilized for the cell viability assay. The lactate dehydrogenase (LDH) cytotoxicity detection kit (Roche, Mannheim, Germany) was used to measure the cell damage and cytotoxicity in MPR-SMN-05-treated HepG2 cells. Extracellular LDH activity was quantified by incubating […] substrate solution (diaphorase/NAD+; INT/sodium lactate) in a 96 well microtiter plate at room temperature for 30 min. The assay was performed in triplicate. Optical density (OD) was measured following incubation at 500 nm using a spectrophotometric plate reader (Bio-Tek uQuant, Winooski, VT).

P. rettgeri NDM-1 = assay: MIC broth microdilution checkerboard; type: cell-based; conditions: Providencia rettgeri
Method: as §1, §2

E. cloacae VIM-1 = assay: MIC broth microdilution checkerboard; type: cell-based; conditions: Enterobacter cloacae
Method: as §1, §2

E. coli NDM-4 = assay: MIC broth microdilution checkerboard; type: cell-based; conditions: Escherichia coli
Method: as §1, §2

K. pneumonia IMP-1 = assay: MIC broth microdilution checkerboard; type: cell-based; conditions: Klebsiella pneumoniae
Method: as §1, §2

E. cloacae IMP-8 = assay: MIC broth microdilution checkerboard; type: cell-based; conditions: Enterobacter cloacae
Method: as §1, §2

K. pneumonia VIM-1 = assay: MIC broth microdilution checkerboard; type: cell-based; conditions: Klebsiella pneumoniae
Method: as §1, §2

E. coli IMP-1 = assay: MIC broth microdilution checkerboard; type: cell-based; conditions: Escherichia coli
Method: as §1, §2

K. pneumoniae IMP-8 [4] = assay: MIC broth microdilution checkerboard; type: cell-based; conditions: Klebsiella pneumoniae
Method: as §1, §2

E. coli NDM-1 [5] = assay: Time-kill assay; type: cell-based; conditions: BP1 in combination with meropenem
Method: (§3) Time-kill studies were performed according to previously published methods, including those described by CLSI document M26-A. E. coli NDM-1, K. pneumoniae IMP-8 and K. pneumoniae NDM were the strains selected for this assay. Briefly, freshly prepared colonies were re-suspended in 10 mL CAMHB and incubated in a shaking incubator (37° C., 180 rpm) for 1 to 2 h. Cultures were then diluted to a 0.5 McFarland standard (approximately 10^8 CFU/mL) and further diluted 1:20 in CAMHB so that the starting inoculum was approximately 5×10^6 CFU/mL. […] A growth control with no antibiotic was also included. The starting inoculum was determined from the growth control tube immediately after dilution and was recorded as the count at time zero. After addition of antibiotics, the starting inoculum was approximately 1×10^6 to 5×10^6 CFU/mL. Tubes were incubated in a shaking incubator at 37° C., 180 rpm, and viability counts were performed at 1, 2, 4, 6, 8 and 24 h by removing 100 μL of the culture, diluting as appropriate, and plating 100 μL on MHA. MHA plates were incubated at 37° C. for at least 18 h. Colonies were counted, and the results were recorded as the number of CFU/mL. A ≥3−log10 decrease in the number of CFU/mL was considered bactericidal.

K. pneumoniae IMP-8 [6] = assay: Time-kill assay; type: cell-based; conditions: BP1 in combination with meropenem
Method: as §3

[7] = system: Klebsiella pneumoniae 449; assay: MIC broth microdilution checkerboard; type: cell-based; conditions: read-out: MIC, Meropenem administered alone
Method: as §1

IC50 (HepG2 cells [2]): 51.8 µg/mL (≈ 68.2 µM)
SMILES: C/C=C(/C(=O)N[C@@H]1C(=O)N2C(C(=O)O)=C(CSC(=O)c3ccco3)CS[C@H]12)c1csc(NC(=O)CC(C)N2CCN(CC)CCN(CC)CC2)n1 (stereo partly drawn) [BP6]
HepG2 cell viability, effect in words (HepG2 cells [2]): dose dependent increase in the cell viability; also recorded: only significantly altered at 200 μg/ml
Induction of necrosis (HepG2 cells [3]): does not induce necrosis
Extracellular lactate dehydrogenase (LDH) level (HepG2 cells [3]): significantly reduced at all concentrations

IC50 (HepG2 cells [2]): 42.3 µg/mL (≈ 59.8 µM)
SMILES: CCN1CCN(CC)CCN(C(CC(=O)Nc2nc(/C(=C/CC(=O)O)C(=O)N[C@@H]3C(=O)N4C(C(=O)O)=CCS[C@H]34)cs2)C(=O)OC)CC1 (stereo partly drawn) [BP14]
HepG2 cell viability, effect in words (HepG2 cells [2]): reduced cell viability at 1 μg/ml and 10-200 μg/ml; also recorded: proliferation occurred at 8 μg/ml
Induction of necrosis (HepG2 cells [3]): does not induce necrosis
Extracellular lactate dehydrogenase (LDH) level (HepG2 cells [3]): significantly reduced at 8 μg/ml; also recorded: remained unaffected at 1 μg/ml and 10-200 μg/ml

Second part, the molecule before the results:

SMILES: CCN1CCN(CC)CCN(C(CC(=O)NC2C(=O)N3C(C(=O)[O-])=C(C[n+]4ccccc4)CSC23)C(=O)OC)CC1 (stereo not drawn) [BP1]
MIC (E. coli NDM-1 [1]; Escherichia coli, NDM1, E. coli NDM-1, read-out: MIC BP1 alone): > 64 µg/mL and > 84 µM
IC50 (HepG2 cells [2]): 60 µg/mL (≈ 102 µM)
HepG2 cell viability, effect in words (HepG2 cells [2]): dose-dependent decrease in cell viability was observed with a significant decrease occurring at 100 and 200 μg/ml
Induction of necrosis (HepG2 cells [3]): does not induce necrosis
Extracellular lactate dehydrogenase (LDH) level (HepG2 cells [3]): significantly reduced at all concentrations
Cytotoxicity, overall statement (HepG2 cells [3]; in vitro, cell lines): safe at the active concentrations
MIC (P. rettgeri NDM-1; NDM1, P. rettgeri NDM-1, read-out: MIC BP1 alone): > 64 µg/mL and > 84 µM
MIC (E. cloacae VIM-1; VIM1, E. cloacae VIM-1, read-out: MIC BP1 alone): > 64 µg/mL and > 84 µM
MIC (E. coli NDM-4; NDM4, E. coli NDM-4, read-out: MIC BP1 alone): > 64 µg/mL and > 84 µM
MIC (K. pneumonia IMP-1; IMP1, K. pneumonia IMP-1, read-out: MIC BP1 alone): > 64 µg/mL and > 84 µM
MIC (E. cloacae IMP-8; IMP8, E. cloacae IMP-8, read-out: MIC BP1 alone): > 64 µg/mL and > 84 µM
MIC (K. pneumonia VIM-1; VIM1, K. pneumonia VIM-1, read-out: MIC BP1 alone): > 64 µg/mL and > 84 µM
MIC (E. coli IMP-1; IMP1, read-out: MIC BP1 alone): > 64 µg/mL and > 84 µM
MIC (K. pneumoniae IMP-8 [4]; IMP8, K. pneumoniae IMP-8, read-out: MIC BP1 alone): > 64 µg/mL and > 84 µM
Time-kill kinetics outcome (E. coli NDM-1 [5]): bactericidal activity
Time-kill kinetics outcome (K. pneumoniae IMP-8 [6]): bactericidal activity

SMILES: CCC1=C(C(=O)O)N2C(=O)[C@@H](NC(=O)/C(=N/C)c3csc(NC(=O)CC(C)N4CCN(CC)CCN(CC)CC4)n3)[C@H]2SC1 (stereo partly drawn) [BP10]
IC50 (HepG2 cells [2]): 62 µg/mL (≈ 95.5 µM)
HepG2 cell viability, effect in words (HepG2 cells [2]): not significantly altered at 50-100 μg/ml; also recorded: significantly reduced at 200 μg/ml
Induction of necrosis (HepG2 cells [3]): does not induce necrosis
Extracellular lactate dehydrogenase (LDH) level (HepG2 cells [3]): remained unaffected at 1 μg/ml; also recorded: significantly reduced at 8-200 μg/ml

SMILES: C[C@@H](O)[C@H]1C(=O)N2C(C(=O)O)=C(S[C@@H]3CN[C@H](C(=O)N(C)C)C3)[C@H](C)[C@H]12 [Meropenem]
MIC (E. coli NDM-1 [1]; Escherichia coli, NDM1, E. coli NDM-1, read-out: MIC MEM alone): > 16 µg/mL and > 42 µM
MIC (E. coli NDM-1 [1]; NDM1, Escherichia coli NDM-1 (Table 6 footnote), read-out: MIC, Meropenem administered alone): > 32 µg/mL
MIC [7]: > 32 µg/mL
MIC (P. rettgeri NDM-1; NDM1, P. rettgeri NDM-1, read-out: MIC MEM alone): > 16 µg/mL and > 42 µM
MIC (E. cloacae VIM-1; VIM1, E. cloacae VIM-1, read-out: MIC MEM alone): 8 µg/mL and 21 µM
MIC (E. coli NDM-4; NDM4, E. coli NDM-4, read-out: MIC MEM alone): > 16 µg/mL and > 42 µM
MIC (K. pneumonia IMP-1; IMP1, K. pneumonia IMP-1, read-out: MIC MEM alone): > 16 µg/mL and > 42 µM
MIC (E. cloacae IMP-8; IMP8, E. cloacae IMP-8, read-out: MIC MEM alone): 8 µg/mL and 21 µM
MIC (K. pneumonia VIM-1; VIM1, K. pneumonia VIM-1, read-out: MIC MEM alone): > 16 µg/mL and > 42 µM
MIC (E. coli IMP-1; IMP1, read-out: MIC MEM alone): 16 µg/mL and 42 µM
MIC (K. pneumoniae IMP-8 [4]; IMP8, K. pneumoniae IMP-8, read-out: MIC MEM alone): 8 µg/mL and 21 µM

SMILES: O=C(O)CN1CCN(CC(=O)O)CCN(CC(=O)O)CC1 [TG1, 1,4,7-triazacyclononane-1,4,7-triacetic acid]
MIC (E. coli NDM-1 [1]; Escherichia coli, NDM1, read-out: MIC TG1 alone): > 64 µg/mL and > 131 µM
MIC (P. rettgeri NDM-1; NDM1, read-out: MIC TG1 alone): > 64 µg/mL and > 131 µM
MIC (E. cloacae VIM-1; VIM1, read-out: MIC TG1 alone): > 64 µg/mL and > 131 µM
MIC (E. coli NDM-4; NDM4, read-out: MIC TG1 alone): > 64 µg/mL and > 131 µM
MIC (K. pneumonia IMP-1; IMP1, read-out: MIC TG1 alone): > 64 µg/mL and > 131 µM
MIC (E. cloacae IMP-8; IMP8, read-out: MIC TG1 alone): > 64 µg/mL and > 131 µM
MIC (K. pneumonia VIM-1; VIM1, read-out: MIC TG1 alone): > 64 µg/mL and > 131 µM
MIC (E. coli IMP-1; IMP1, read-out: MIC TG1 alone): > 64 µg/mL and > 131 µM
MIC (K. pneumoniae IMP-8 [4]; IMP8, read-out: MIC TG1 alone): > 64 µg/mL and > 131 µM
